The text below walks through data of patent publication US9144538B2, “Cosmetic compositions containing substituted azole and methods for alleviating the signs of photoaged skin” (The Procter & Gamble Company, priority 2013, dated 2015).

pIC50: −log10 of the molar value. Like-named read-outs stand apart in the source and are kept apart here.

The target in one data set is CYP3A4 (Homo sapiens (Human), UniProt P08684). Put plainly: In vitro CYP3A4 inhibition assay (P450-GLO Assay kit). Conditions: for IC50: read-out: IC50 (uM), CYP3A4 inhibition. The text has this:
The metabolism of retinoic acid and vitamin D in the skin is incompletely understood, but there is evidence for the involvement of CYP26A1, CYP3A4 and CYP2C8 in catalyzing the 4-hydroxylation of all-trans RA to 4-hydroxy-RA. It is believed, without being limited by theory, that CYP3A4 may be particularly important for ATRA metabolism in the skin. This is because CYP3A4 is expressed in skin, involved in RA metabolism, a CYP with one of the broadest substrate specificities of all of the known CYPs and available as a human recombinant protein in a commercial kit. Thus, a commercially available CYP3A4 assay was used as a surrogate to predict RAMBA potential in the skin.
The commercially available P450-GLO™ Assay kit (Promega Corporation, Madison Wis.) was used to screen various compounds for potential CYP activity, specifically CYP3A4A inhibition activity. CYP3A4A is thought to be among the primary CYP isoforms responsible for retinoic acid metabolism in the skin.
A commercially available P450-GLO™ Assay kit (Promega Corporation, Madison Wis.) is used to screen various compounds for CYP3A4A inhibition activity. CYP3A4A is thought to be one of the primary CYP isoforms responsible for retinoic acid metabolism in the skin.

The subject of data set [1] is ATRA 4-hydroxylase (CYP) activity of pig liver microsomes. Description: In vitro ATRA 4-hydroxylase activity assay to determine CYP inhibition (pig liver microsomes). Conditions: for pIC50: pig, 90 min, pH 7.4; for IC50: read-out: IC50 (μM), in vitro 4-hydroxylase inhibition assay, 1 μM ATRA, 90 min at 37° C.; for IC50 / CYP inhibitory activity (in words), 4-hydroxylase assay: pig liver microsomes. The text has this: Cytochrome P450 is a large and diverse group of enzymes that catalyze the oxidation of organic substances. […] Applicant evaluated the potential RAMBA activity of several azoles using pig liver microsomes, a rich source of CYP activity, comprising many different CYP 450 isoforms. […] As understanding in this area has progressed, a more specific CYP inhibition assay can be used to provide better predictivity of activity in human skin. Nevertheless, this assay may still be used as a general predictor of overall CYP activity.
All procedures were carried out under minimal light in order to prevent degradation of the retinoid samples.
Microsomal preparation: one lobe of fresh pig liver was obtained at the time of slaughter from a food-processing company and immediately placed in ice cold 15 mM KH2PO4/250 mM sucrose (pH 7.4) and kept on ice during transportation. A 10 g sample of liver was minced and homogenized in 30 mls of homogenization buffer (15 mM KH2PO4/250 mM sucrose) using a Tekmar homoginizer by pulsing 3 times 20 second pulses. […] The remaining pig liver was cut into 10-g pieces and wrapped in aluminum foil and stored at −80° C. The homogenates from the 8 samples were pooled and centrifuged at 13,000×g for 20 minutes at 4° C. to remove crude debris and the supernatant was further centrifuged at 100,000×g for 70 minutes at 4° C. The microsomal pellets were resuspended into 50 mls of 150 mM KH2PO4/1 mM DTT (pH 7.4) and 1 mL aliquots were stored at −80° C.
100-150 μg of pig liver microsomal protein in 150 mM KH2PO4 is incubated at 37° C. in the presence of radiolabeled ATRA and 5 mM NADPH for 90 min. The final ATRA concentration is 1 μM, as a combination of [20-Methyl-^3H]ATRA and unlabeled ATRA. Initially, radiolabeled ATRA may be used to assist in validating the method. Once retention times of retinoid metabolites are identified, unlabeled ATRA is used for screening. Compounds tested as possible competitive substrates are added to the assay 10 min prior to the addition of ATRA. Ethanol, containing 0.1% butylated hydroxytoluene (BHT) as an antioxidant, is used to stop the reactions. For recovery of ATRA the pH of reactions are adjusted to 3.0 before extraction with 0.1N HCl. Retinoids are extracted from the protein aqueous phase with 4 mL hexane, 1 ml 100 μg/ml BHT in water (pH 3). An additional 4 mlL of hexane (pH 3) is used for a second extraction. The organic extractions are pooled, evaporated to dryness using a speed vac, and resuspended in 62.5 μl acetonitrile containing 1 mg/ml BHT. Samples are analyzed by HPLC.
Mobile phases used for gradient elution of retinoids are those of Duell et al., J. Clin. Invest. […] Mobile phase A is acetonitrile:0.02 M ammonium acetate:acetic acid (1:1:0.01) and mobile phase B is acetonitrile:0.2M ammonium acetate:acetic acid (19:1:0.008). At the start of the HPLC run, solvent A is run 100% followed by a linear gradient to solvent B at 3 minutes, a shallow gradient to 81% solvent B at 38 minutes, and 100% solvent B at 40 minutes. […] Effluent from the HPLC column flows directly into a flow-through scintillation spectrometer (β-RAM). Because of the sensitivity limitations of the β-RAM spectrometer, it is not used to quantitate peak areas but rather to confirm ATRA and ATRA 4-hydroxylase activity. Calculated peaks areas (using Millenium software—Waters Corp.) of ATRA and ATRA metabolites are used to quantify relative activity levels.

Sequence of CYP3A4 (P08684 whole entry): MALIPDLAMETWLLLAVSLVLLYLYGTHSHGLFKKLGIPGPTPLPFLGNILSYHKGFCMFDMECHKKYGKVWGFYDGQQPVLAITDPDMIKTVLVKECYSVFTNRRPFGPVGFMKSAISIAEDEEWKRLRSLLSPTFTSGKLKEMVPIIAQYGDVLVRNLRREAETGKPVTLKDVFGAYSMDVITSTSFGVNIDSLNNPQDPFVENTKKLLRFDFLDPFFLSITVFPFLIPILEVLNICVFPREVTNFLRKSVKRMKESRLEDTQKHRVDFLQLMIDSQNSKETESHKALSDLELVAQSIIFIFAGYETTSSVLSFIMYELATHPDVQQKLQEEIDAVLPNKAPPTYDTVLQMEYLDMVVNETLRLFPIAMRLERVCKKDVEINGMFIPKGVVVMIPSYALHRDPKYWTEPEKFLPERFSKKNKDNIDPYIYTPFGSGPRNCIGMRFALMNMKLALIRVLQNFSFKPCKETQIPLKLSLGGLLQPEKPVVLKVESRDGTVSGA

Usually IC50 stands for the concentration at which inhibition is half-maximal. Turning to `CCc1nc(C)c[nH]1` [2-Ethyl-4-methylimidazole], on CYP3A4 (P450-GLO Assay kit), the 50% inhibitory concentration (IC50) is over 10 µM. For orientation: pIC50 means −log10 of the IC50, conventionally taken in molar units. Compound `CCc1ncc[nH]1` [2-Ethylimidazole] had a pIC50 at CYP3A4 (human) of under 5.00. For `CCc1cccc(C)c1N(C(=O)CCl)[C@@H](C)COC` [Metolachlor], on CYP3A4 (P450-GLO Assay kit), the “hit / no hit, inhibition of CYP3A4” value is “no hit (weak/no inhibition (IC50 value >10 μM))” and the IC50 is over 10 µM. `CC(=O)c1ccc(-n2ccnc2)cc1` [4′-(Imidazol-1yl) acetophenome]: the “hit / no hit, inhibition of CYP3A4” value on CYP3A4 (human) is reported as “Hit”. Consider `c1ccc(-c2nc[nH]c2-c2ccccc2)cc1` [4,5-diphenylimidazole], for which the pIC50 in data set [1] was 4.00. Turning to `Cn1ccnc1` [1-Methylimidazole], the pIC50 against CYP3A4 (human) is under 5.00. As to `c1ccc(Cn2ccnc2)cc1` [1-benzylimidazole], the IC50 in data set [1] came to 77.5 µM. In turn, `N[C@@H](Cc1c[nH]cn1)C(=O)O` [Histidine] gave a pIC50 at CYP3A4 (human) of under 5.00.

The compound `CCCCc1nc(C=O)c(Cl)[nH]1` [2-Butyl-4-chloro-5-formylimidazole] gave a pIC50 against CYP3A4 (human) of under 5.00.

With `O=C(/C=C/C=C/c1ccc2c(c1)OCO2)N1CCCCC1` [Piperine], on CYP3A4 (human), the pIC50 was about 5.00 and the “hit / no hit, inhibition of CYP3A4” value was “Hit”.

On to `CC(=O)n1ccnc1` [1-Acetylimidazole], for which, at CYP3A4 (P450-GLO Assay kit), the IC50 was over 10 µM. As for `c1ccc(-n2ccnc2)cc1` [1-phenylimidazole], at CYP3A4 (P450-GLO Assay kit), the “hit / no hit, inhibition of CYP3A4” value was “Hit” and the “inhibitory activity in the CYP3A4 assay (in words)” value was “showed inhibitory activity”. In data set [1], the “CYP inhibitory activity (in words), 4-hydroxylase assay” value is on record as “in the same range as climbazole” and the IC50 is 52.5 µM. On CYP3A4 (human), `CC(=O)/C=C/C1=C(C)CCCC1(C)C` [β-Ionone] showed a pIC50 of under 5.00. Still for that read-out and setting: to `NCCCn1ccnc1` [N-(3-Aminopropyl) imidazole] belongs under 5.00.

Consider `CC(C)(C(=O)c1cccnc1)c1cccnc1` [Metyrapone], for which the “hit / no hit, inhibition of CYP3A4” value at CYP3A4 (human) is recorded as “Hit”.

In the case of `Cc1ncc[nH]1` [2-Methylimidazole], on CYP3A4 (P450-GLO Assay kit), the IC50 is over 10 µM. Turning to `CCCCNC(=O)n1c(NC(=O)OC)nc2ccccc21` [Benomyl], at CYP3A4 (P450-GLO Assay kit), the “hit / no hit, inhibition of CYP3A4” value was “no hit (weak/no inhibition (IC50 value >10 μM))” and the IC50 was over 10 µM. Turning to `Cc1cccc(C)c1N(Cn1cccn1)C(=O)CCl` [Metazachlor], at CYP3A4 (human), the “hit / no hit, inhibition of CYP3A4” value was “no hit >10 uM (key: hit: strong inhibition (IC50 value<10 μM); no hit: weak/no inhibition (IC50 value >10 μM))”. At CYP3A4 (P450-GLO Assay kit), the IC50 is over 10 µM. Turning to `Cc1nccn1Cc1ccccc1` [1-benzyl-2-methylimidazole], the pIC50 in data set [1] was 3.51. For `c1ccc2[nH]cnc2c1` [Benzimidazole], the IC50 at CYP3A4 (P450-GLO Assay kit) is over 10 µM. Turning to `CC1=N[C@H](C(=O)O)CCN1` [Ectoine], at CYP3A4 (human), the pIC50 was under 5.00. Regarding `C=Cn1ccnc1` [1-Vinylimidazole], on CYP3A4 (P450-GLO Assay kit), the IC50 is over 10 µM.

For the compound `O=C(n1ccnc1)n1ccnc1` [1′-1-Carbonylimidazole], on CYP3A4 (P450-GLO Assay kit), the IC50 was over 10 µM. As for `Clc1ccc(COC(Cn2ccnc2)c2ccc(Cl)cc2Cl)c(Cl)c1` (stereo not drawn) [Miconazole], the “hit / no hit, inhibition of CYP3A4” value on CYP3A4 (human) was “Hit 5 uM”. For the compound `Nc1nc[nH]n1` [Amitrol], the pIC50 against CYP3A4 (human) was under 5.00. The same measure, in the same setting: to `c1ccc(-c2n[nH]cc2-c2ccnc3ccccc23)nc1` [LY-364947] belongs under 5.00. Turning to `Cc1ccc2cc3c(ccc4ccccc43)c3c2c1CC3` [Methylcholanthrene], on CYP3A4 (P450-GLO Assay kit), the “hit / no hit, inhibition of CYP3A4” value is “Near Hit” and the IC50 was over 10 µM. The corresponding values for Diltazem are “no hit (weak/no inhibition (IC50 value >10 μM))” and over 10 µM.

In the case of `Clc1ccccc1-c1nc2ccccc2[nH]1` [2-(2-Chlorophenyl) benzimidazole], the IC50 on CYP3A4 (P450-GLO Assay kit) is over 10 µM. In the case of `N=C(N)c1ccc(OCCCCCCOc2ccc(C(=N)N)cc2)cc1` [Hexamidine diisethionate], the IC50 at CYP3A4 (P450-GLO Assay kit) was over 10 µM. Take `c1coc(-c2nc3ccccc3[nH]2)c1` [Fuberidazole]: the “hit / no hit, inhibition of CYP3A4” value on CYP3A4 (human) is on record as “no hit >10 uM (key: hit: strong inhibition (IC50 value<10 μM); no hit: weak/no inhibition (IC50 value >10 μM))”. In addition, the IC50 on CYP3A4 (P450-GLO Assay kit) is over 10 µM. With `CC(NC(=O)[C@@H](N)CCC(=O)O)c1ncc[nH]1` (stereo partly drawn) [Glutamylamidoethyl], on CYP3A4 (human), the pIC50 was under 5.00. With `c1ccc(-c2ncc[nH]2)cc1` [2-phenylimidazole, 2-Phenylimidazole], the “inhibitory activity in the CYP3A4 assay (in words)” value at CYP3A4 is “did not”. Also, the “hit / no hit, inhibition of CYP3A4” value at CYP3A4 (P450-GLO Assay kit) was “no hit (weak/no inhibition (IC50 value >10 μM))”. For the same compound, the pIC50 at CYP3A4 (human) is under 5.00. Moreover, in data set [1], the “CYP inhibitory activity (in words), 4-hydroxylase assay” value is given as “lacked any significant inhibitory activity” and the IC50 was over 500 µM. Take `Clc1ncnc2[nH]cnc12` [6-Chloropurine]: the pIC50 against CYP3A4 (human) is under 5.00.
